Data on three substances can be found in paper PMC10799292, “The Role of β-Defensin 1 Against Porphyromonas gingivalis Lipopolysaccharide-Mediated Inflammation in the THP-1 Cell Line” (Cureus, 2023).

No end group written: not given here.

For series [1] the following is noted: directly interacting with LPS; cited from earlier work. The text has this: (§1) One of the primary virulence factors of periodontitis, Pg-LPS, targets TLR4, which activates the NF-kB signaling pathway and triggers the secretion of inflammatory cytokines such as TNFα, IL-6, and chemokines, recruiting monocytes/macrophages to the site of infection. […] Cecropin A, a novel 37-residue cecropin-like antimicrobial ...

A further series concerns endothelial cells. To be noted: cited from earlier work.
Source text: as §1

Another series relates to RAW264.7 cells. To be noted: stimulated with LPS; cited from earlier work.
Source text: as §1

Series [2] concerns THP-1 differentiated macrophage cell line. The series is described as follows: Cytotoxicity evaluation of Pg-LPS by MTT method. To be noted: 24 h, 0.25-4 µg/mL. The class given is cell-based, human. Here is the method: The THP-1 cell line was cultured in DMEM and supplemented with 10% FBS, sodium bicarbonate, L-glutamine, and an antibiotic solution containing penicillin (100 U/mL), amphotericin B (2.5 µg/mL), and streptomycin (100 µg/mL). The cells were maintained in a 5% humidified CO2 incubator (NBS Eppendorf, Germany) at 37°C. To induce differentiation into macrophages, the THP-1 cell line was treated with 25 ng/mL phorbol 12-myristate 13-acetate (PMA) (cat. 91585, Sigma-Aldrich, USA) and incubated for 48 hours. Following incubation, the cells were seeded in a 96-well culture plate at a density of 5x10^4 cells/well and incubated for 24 hours in a humidified 5% CO2 incubator at 37°C.
After incubation of 24 hours, triplicate additions of Pg-LPS in various concentrations (0.25 µg, 0.5 µg, 1 µg, 2 µg, and 4 µg/mL) were done appropriately. […] The inhibitory concentration (IC50) value of Pg-LPS was determined by the ED50 software.
Inverted phase contrast microscopy (IPCM) using an Olympus CKX41 microscope (Olympus, Japan) equipped with an Optika Pro5 CCD camera (Optika, Italy) was utilized to directly observe the cells. Cell viability was determined using the MTT (3-(4,5-Dimethylthiazol-2-yl)-2,5-diphenyltetrazolium bromide) assay (Sigma, M-5655). […] The absorbance of this colored solution can be quantified by measuring at approximately 570 nm using a spectrophotometer. […]
In general terms: Tetrazolium assays rely on reduction of a dye to a coloured formazan, in cell work by metabolically active cells.

The subject of series [3] is THP-1 cells. The series is described as follows: Cell cycle distribution by flow cytometry. The class given is cell-based, human. The conditions noted are these: Pg-LPS alone, compared to untreated control cells. As to the method:
Untreated control and Pg-LPS stimulated cells were also maintained. The MUSE Cell Cycle Kit was added, and the manufacturer's instructions were followed.

The test system of series [4] is THP-1 cells. The series is described as follows: Apoptosis by flow cytometry (Annexin V & Dead Cell). The conditions noted are these: Pg-LPS 1 µg/mL alone. In kind it is cell-based, human. Here is the method: Untreated control and Pg-LPS treated wells were also maintained. To the tubes, 100 μL of the Muse™ Annexin V & Dead Cell Reagents were added separately. The tubes were completely mixed by pipetting up and down or spinning at a medium speed for three to five seconds, followed by 20 minutes of incubation in the dark at room temperature. The cells were examined with a Flow Cytometer, gated against untreated control cells, and evaluated for apoptosis with the Muse FCS 3.0 software.
The Muse Annexin V & Dead Cell Kit is a method to analyze cells in various stages of apoptosis, where fluorescently labeled Annexin V binds to phosphatidylserine (PS), which translocates to the outer surface of the cell membrane upon the onset of apoptosis. 7-AAD is excluded from live and healthy cells and permeates late-stage apoptotic and dead cells. […] The result is depicted in Figure 9.
For orientation: Flow cytometry measures light scatter and fluorescence of single cells or particles in a stream.

Series [5] concerns THP-1 cells. The series is described as follows: Intracellular ROS generation, DCFDA assay. In kind it is cell-based, human. To be noted: Pg-LPS 1 µg/mL alone; DCFDA 30 min, ex 470 nm, em 635 nm; untreated control 2379. As to the method:
Untreated control and Pg-LPS treated wells were also maintained. The cells were washed with PBS, and 50 µl of Dichlorodihydrofluorescein diacetate (DCFDA) was added, followed by incubation for 30 minutes. After incubation, excess dye was removed with PBS, and fluorescence was observed using a fluorescent microscope (Olympus CKX41 with Optika Pro5 CCD camera) and quantified with a fluorimeter at 470 nm excitation and emission at […] (Qubit 3.0, Life Technologies, USA), displaying the results in arbitrary units (AU).
The effect of β-defensin 1 on ROS generation in THP-1 cells stimulated with Pg-LPS was studied. DCFDA, a fluorogenic dye, measures hydroxyl, peroxyl, and other ROS activities within the cell. After entering the cell, DCFDA is deacetylated by cellular esterases into a non-fluorescent compound. This nonfluorescent chemical is then oxidized by ROS into […] (DCF), which, upon excitation with a blue filter, emits green fluorescence. When THP-1 cells were stimulated with Pg-LPS, there was a considerable increase in fluorescence, which decreased upon treatment with β-defensin 1, as shown in Figure 7 and Table 2.

A further series deals with phagocytosis. The conditions noted are these: via its effect on the cytoskeletal network; cited from earlier work. The text has this:
Two important functions of macrophages are to eliminate pathogens through phagocytosis and apoptosis of inflammatory cells and their subsequent clearance (efferocytosis). The present study analyzed the role of AMP, β-defensin 1, in Pg-LPS-stimulated THP-1 differentiated macrophage cells.

On to cathelicidin, for which the LPS-neutralizing effect result in series [1] is “potent LPS-neutralizing effect”. Besides, the LPS-induced apoptosis entry in the series with endothelial cells is recorded as “reducing LPS-induced apoptosis in endothelial cells”.

On to “Cecropin A: a novel 37-residue cecropin-like antimicrobial peptide isolated from a cecropia moth (KWKLFKKIEKVGQNIRDGIIKAGPAVAVVGQATQIAK; ends and bridges not checked; UniProt P01507 27-63, looked up)”, for which the anti-inflammatory activities entry in the series on RAW264.7 cells was “showed anti-inflammatory activities”.

“Porphyromonas gingivalis lipopolysaccharide [Pg-LPS]”: the “cytotoxicity (in words)” value in series [2] is recorded as “dose-dependent cytotoxicity”. Also, the “G0/G1 phase of the cell cycle (in words)” value with THP-1 cells [3] was “increase in the G0/G1 phase of the cell cycle”. The substance also registered a live cells with THP-1 cells [4] (untreated control 87.25%) of 74.40%. Moreover, the “necrotic effect / Dead” value with THP-1 cells [4] (untreated control Dead 3.65 %) is 22.85%. Moreover, the “ROS generation, Fluorescence intensity” value with THP-1 cells [5] turned out to be 10743.55 AU. In addition, the effect on phagocytosis entry in the series with phagocytosis is given as “suppresses phagocytosis”.
